{"source": "patent US9763444B2", "about": "“Compositions and methods for repelling blood-sucking and biting insects, ticks and mites” (The United States of America, as represented by the …, priority 2013, dated 2017)", "key": {"Ae. aegypti [1]": {"system": "Ae. aegypti", "assay": "Minimum Effective Dosage (MED) test on treated cloth, mosquito repellency", "type": "in vivo, Aedes aegypti", "conditions": "for Ae. aegypti Minimum Effective Dosage, F1 / Ae. aegypti Minimum Effective Dosage, M1 / Ae. aegypti Minimum Effective Dosage, M2 / Ae. aegypti Minimum Effective Dosage, Average: Table 2; for Ae. aegypti Minimum Effective Dosage, F1: human subject F1; for Ae. aegypti Minimum Effective Dosage, F1 / Ae. aegypti Minimum Effective Dosage, M1 / Ae. aegypti Minimum Effective Dosage, M2: highest concentration 1.500 mg/cm^2; for Ae. aegypti Minimum Effective Dosage, M1: human subject M1; for Ae. aegypti Minimum Effective Dosage, M2: human subject M2; for Ae. aegypti Minimum Effective Dosage, Average: mean of 3 volunteers", "method": "Bioassay for mosquito repellent activity: Repellency screening test for experimental chemicals were carried out to identify candidates that might be useful repellents. The repellent efficacy was compared to that of the standard repellent, DEET. Experimental compounds were assessed in one of two ways: (1) a range of concentration was evaluated to determine the minimum effective dosage (MED) which was the concentration threshold of where the repellent began to fail and allowed bites, or (2) a predetermined concentration of each repellent was applied to cloth and the activity was evaluated over several days (or in some cases months) (Katritzky, A. R., et al., Proc. Nat. Acad. Sci. (US), 105, 7359-7364 (2008); Katritzky, A. R., et al., Journal of Med. Entomol., 47: 924-938 (2010)). When conducting assays for repellency, a failure point was also predetermined for those measurements. Since experiments described herein used about 500 female mosquitoes per test, the failure point was set at 1% (equal to 5 bites) received during a test interval. From 3 to 5 volunteers participated in the screening of each set of chemicals.\nMinimum Effective Dosage (MED) Test: The MED bioassays on treated cloth were a method of screening to determine the minimum amount of a repellent needed to prevent bites. Experimental compounds were prepared in solution by combining 0.15 g of experimental chemical with 2 mL of acetone in a 7.1 mL screwtop glass vial. This solution was then serially diluted to obtain nine concentrations when applied on to the cloth patch: 1.5, 0.75, 0.375, 0.187, 0.094, 0.047, 0.023, 0.011, and 0.006 mg/cm^2. The standard N,N-diethyl-3-methylbenzamide (DEET) was also tested at the same concentration levels to serve as a control and a comparison for relative repellency. A 50 cm^2 (5 cm×10 cm) patch of muslin cloth was rolled lengthwise and placed into each of the glass vials and scaled with a screwtop so it soaked up the solution. Just prior to the experiment, the pieces of treated cloth were removed from the vials, affixed to card stock tabs (5 cm×3 cm) with staples, and hung with masking tape on a rack to dry and allow acetone to evaporate. Volunteers wore a latex glove over their hands, a nylon stocking over their arm, and then wrapped a plastic Velcro-sealed sleeve over their entire forearm with a 32 cm^2 (4 cm×8 cm) window cut-out to allow mosquitoes to bite through. The nylon stocking acted as a barrier between the dried cloth and the skin, an additional precaution with experimental compounds. Dried cloth patches were stretched across the window in the plastic sleeve and held in place with masking tape. Volunteers placed their sleeve-covered arms into a screened cage for a one minute period with approximately 500 female Ae. aegypti mosquitoes that had been preselected for host-seeking behavior using a draw box (Posey, K. H., and C. E. Schreck, Mosquito News, 41: 566-568 (1981)). […] The MED recorded was the lowest passing concentration level tested for the experimental compound. […] All human volunteers in the study provided informed consent to participate of a protocol approved by the University of Florida Human Use Institutional Review Board (IRB #636-2005)."}, "Ae. aegypti [2]": {"system": "Ae. aegypti", "assay": "Complete Protection Time test on treated cloth (duration of protection)", "type": "in vivo, Aedes aegypti", "conditions": "Dosage 0.75 mg/cm^2 on cloth; for Duration of protection against Ae. aegypti, M-3 Days Protection: subject M-3", "method": "Bioassay for mosquito repellent activity: Repellency screening test for experimental chemicals were carried out to identify candidates that might be useful repellents. The repellent efficacy was compared to that of the standard repellent, DEET. Experimental compounds were assessed in one of two ways: (1) a range of concentration was evaluated to determine the minimum effective dosage (MED) which was the concentration threshold of where the repellent began to fail and allowed bites, or (2) a predetermined concentration of each repellent was applied to cloth and the activity was evaluated over several days (or in some cases months) (Katritzky, A. R., et al., Proc. Nat. Acad. Sci. (US), 105, 7359-7364 (2008); Katritzky, A. R., et al., Journal of Med. Entomol., 47: 924-938 (2010)). When conducting assays for repellency, a failure point was also predetermined for those measurements. Since experiments described herein used about 500 female mosquitoes per test, the failure point was set at 1% (equal to 5 bites) received during a test interval. From 3 to 5 volunteers participated in the screening of each set of chemicals. Complete Protection Time Test: Complete protection time (CPT) on treated cloth is a method of screening that is used to determine the repellent duration for experimental chemicals that have not been examined for safe use on humans. The standard repellent DEET was used as a positive control as a benchmark by which to compare the repellents. Experimental compounds were prepared in solution by combining 0.075 g of experimental chemical with 1 mL of acetone in a 7.1-mL screwtop glass vial. The same concentration level of DEET was also prepared in this way to serve as a control and a comparison for relative repellency. A 50 cm^2 (5 cm×10 cm) patch of muslin cloth was rolled lengthwise and placed into each of the glass vials and sealed with a screwtop so it soaked up the solution. Just prior to the experiment, the pieces of treated cloth were removed from the vials, affixed to card stock tabs (5 cm×3 cm) with staples, and hung with masking tape on a rack to dry and allowed the volatile acetone to evaporate. Similar to the MED tests, volunteers wore a latex glove over their hands, a nylon stocking over their arm, and then wrapped a plastic Velcro-sealed sleeve over their entire forearm with a 32 cm^2 (4 cm×8 cm) window cut-out to allow mosquitoes to bite through. Dried cloth patches were stretched across the window in the plastic sleeve and held in place with masking tape. Volunteers placed their sleeve-covered arms into a screened cage for a one minute period with approximately 500 female Ae. aegypti mosquitoes that had been preselected for host-seeking behavior using a draw box. A cloth patch that received a 1% bite through level, equal to 5 mosquitoes that bit out of 500 mosquitoes, was considered a failure at that concentration. If 0-4 bites were received, then the treated cloth was still considered to be repellent at that concentration. The duration was recorded as the number of days an experimental chemical received a passing result, with day 0 being the day the sample was first dried. […] As with the tests conducted to determine CPT, volunteers in the study provided informed consent (IRB protocol #636-2005). The protocol was approved by the University of Florida Human Use Institutional Review Board."}}}
{"molecule": "CC1(C)C=Cc2c(C(=O)O)ccc(Cl)c2O1", "note": "[Compound 13, 8-chloro-2,2-dimethyl-2H-chromene-5-carboxylic acid]", "values": [{"measurement": "Ae. aegypti Minimum Effective Dosage, F1", "setting": "Ae. aegypti [1]", "result": ">1.500", "unit": "mg/cm^2"}, {"measurement": "Ae. aegypti Minimum Effective Dosage, M1", "setting": "Ae. aegypti [1]", "result": ">1.500", "unit": "mg/cm^2"}, {"measurement": "Ae. aegypti Minimum Effective Dosage, M2", "setting": "Ae. aegypti [1]", "result": ">1.500", "unit": "mg/cm^2"}, {"measurement": "Duration of protection, Proportion to DEET", "setting": "Ae. aegypti [2]", "result": 0.50}, {"measurement": "Duration of protection against Ae. aegypti, M-3 Days Protection", "setting": "Ae. aegypti [2]", "result": 1, "unit": "days"}]}
{"molecule": "CC1(C)C=Cc2c(CO)ccc(Cl)c2O1", "note": "[Compound 11, (8-chloro-2,2-dimethyl-2H-chromen-5-yl)methanol]", "values": [{"measurement": "mosquito repellent activity against Ae. aegypti (in words)", "setting": "Ae. aegypti [1]; MED test on treated cloth", "result": "act as mosquito repellents"}, {"measurement": "Ae. aegypti Minimum Effective Dosage, F1", "setting": "Ae. aegypti [1]", "result": 0.011, "unit": "mg/cm^2"}, {"measurement": "Ae. aegypti Minimum Effective Dosage, M1", "setting": "Ae. aegypti [1]", "result": 0.011, "unit": "mg/cm^2"}, {"measurement": "Ae. aegypti Minimum Effective Dosage, M2", "setting": "Ae. aegypti [1]", "result": 0.011, "unit": "mg/cm^2"}, {"measurement": "Ae. aegypti Minimum Effective Dosage, Average", "setting": "Ae. aegypti [1]", "result": 0.011, "unit": "mg/cm^2"}, {"measurement": "Duration of protection, Proportion to DEET", "setting": "Ae. aegypti [2]", "result": 1.00}]}
{"molecule": "CC1(C)C=Cc2cc(CCO)ccc2O1", "note": "[Compound 9]", "values": [{"measurement": "Ae. aegypti Minimum Effective Dosage, F1", "setting": "Ae. aegypti [1]", "result": 0.375, "unit": "mg/cm^2"}, {"measurement": "Ae. aegypti Minimum Effective Dosage, M1", "setting": "Ae. aegypti [1]", "result": 0.375, "unit": "mg/cm^2"}, {"measurement": "Ae. aegypti Minimum Effective Dosage, M2", "setting": "Ae. aegypti [1]", "result": 0.375, "unit": "mg/cm^2"}, {"measurement": "Ae. aegypti Minimum Effective Dosage, Average", "setting": "Ae. aegypti [1]", "result": 0.375, "unit": "mg/cm^2"}, {"measurement": "Duration of protection, Proportion to DEET", "setting": "Ae. aegypti [2]", "result": 0.50}, {"measurement": "Duration of protection against Ae. aegypti, M-3 Days Protection", "setting": "Ae. aegypti [2]", "result": 1, "unit": "days"}]}
